For data set [1] the following is noted: 101 kPa, Liquid, Vibrating tube method.
Data set [2] is described as follows: xn = mol fraction of the nth substance listed. As to conditions: 101 kPa, Liquid, x2 = 0; for mass density: Vibrating tube method; for speed of sound: Sing-around technique in a fixed-path interferometer.

Each structure is given as a SMILES string. Several values for one entry are separate records, joined by “and”; a condition that tells them apart may be missing. Identical values can stand only once. ± gives the expanded uncertainty stated by the source.

For the molecule `O` [water], the mass density in data set [1] (283 K) is 999.754 ± 0.1 kg/m3 and 999.719 ± 0.1 kg/m3 and 999.713 ± 0.1 kg/m3; in data set [1] (288 K), 999.166 ± 0.1 kg/m3; in data set [1] (293 K), 998.283 ± 0.1 kg/m3; in data set [1] (303 K), 995.75 ± 0.1 kg/m3; in data set [1] (308 K), 994.099 ± 0.1 kg/m3 and 994.091 ± 0.1 kg/m3 and 994.144 ± 0.1 kg/m3; in data set [1] (313 K) it was 992.27 ± 0.11 kg/m3 and 992.33 ± 0.1 kg/m3.

For the molecule `O` [water] + CCCCCCCCCCn1cc[n+](C)c1.[Cl-], the mass density in data set [2] (283 K) is 999.713 ± 0.1 kg/m3; in data set [2] (308 K), 994.099 ± 0.1 kg/m3. Further, the speed of sound in data set [2] (313 K) is on record as 1529 ± 1.2 m/s.

For the molecule `O` [water] + CCCCCCCC[n+]1ccn(C)c1.[Cl-], the mass density in data set [2] (283 K) is 999.754 ± 0.1 kg/m3; in data set [2] (288 K) it was 999.166 ± 0.1 kg/m3; in data set [2] (293 K), 998.283 ± 0.1 kg/m3; in data set [2] (303 K), 995.75 ± 0.1 kg/m3; in data set [2] (308 K) it was 994.144 ± 0.1 kg/m3; in data set [2] (313 K) it was 992.33 ± 0.1 kg/m3. For the same molecule, the speed of sound in data set [2] (313 K) came out at 1529 ± 1.2 m/s.

Take `O` [water] + CCCCCCCCCCCC[n+]1ccn(C)c1.[Cl-]: the mass density in data set [2] (283 K) worked out at 999.719 ± 0.1 kg/m3; in data set [2] (308 K) it was 994.091 ± 0.1 kg/m3; in data set [2] (313 K), 992.27 ± 0.1 kg/m3. Moreover, the speed of sound in data set [2] (313 K) was 1529 ± 1.2 m/s.

For orientation: mass density means mass per unit of volume. Usually speed of sound stands for how fast a sound wave travels through the sample.

(Values after the NIST ThermoML archive (doi:10.1016/j.jct.2012.11.032).)
